Literature values, collected in patent US6262108A, “Medicinal use of cromoglycic acid compounds” (Kyoto Pharmaceutical Industries, Ltd., priority 1997, dated 2001).
Counter-ions that a name gives are not always drawn.

What was measured:
[1] = system: contact dermatitis and atopic dermatitis; settings: background statement on conventional antiallergic agents; cited from earlier work
[2] = system: type IV allergic reaction; settings: background statement, postulated, with literature references; cited from earlier work

Row | SMILES | therapeutic effects on contact dermatitis and atopic dermatitis [1] | type IV allergic reaction-inhibitory action [2]
1 | O=c1[nH]c2ccccc2n1CCCN1CCN(C(c2ccccc2)c2ccccc2)CC1 [oxatomide] | either ineffective or fail to show satisfactory therapeutic effects | failure to show a type IV allergic reaction-inhibitory action
2 | COc1ccc(/C=C/C(=O)Nc2ccccc2C(=O)O)cc1OC [tranilast] | either ineffective or fail to show satisfactory therapeutic effects | failure to show a type IV allergic reaction-inhibitory action
3 | NC1=NCC2c3ccccc3Cc3ccccc3N12 (stereo not drawn) [epinastine hydrochloride] | either ineffective or fail to show satisfactory therapeutic effects | failure to show a type IV allergic reaction-inhibitory action
4 | Cc1ccc2c([nH]c(=O)c3c(=O)cc(C(=O)OCCC(C)C)oc32)c1C [repirinast] | either ineffective or fail to show satisfactory therapeutic effects | failure to show a type IV allergic reaction-inhibitory action
5 | Cc1cccn2c(=O)c(-c3nnn[nH]3)cnc12 [pemirolast potassium] | either ineffective or fail to show satisfactory therapeutic effects | failure to show a type IV allergic reaction-inhibitory action
6 | CCOCCn1c(N2CCCN(C)CC2)nc2ccccc21 [emedastine difumarate] | either ineffective or fail to show satisfactory therapeutic effects | failure to show a type IV allergic reaction-inhibitory action
